Results published in ChEMBL document CHEMBL1201862, “PubChem BioAssay data set” (2004).
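Five compound concentrations were applied to cells in 96-well plates for 48 hours; endpoints were derived by simple linear interpolation of the resulting dose-response curve. Abbreviation: GI50, concentration required for 50% inhibition of growth.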 The source made the active and inactive calls. Cut-off read from the data, not from the text of the source: active = GI50 up to about 1.1 µM and inactive = higher.

Key:
Assay in all cases: NCI tumour cell line growth inhibition, 48 h
SK-MEL-2 = system: SK-MEL-2
SK-MEL-28 = system: SK-MEL-28
SNB-19 = system: SNB-19
TK-10 = system: TK-10
EKVX = system: EKVX
OVCAR-8 = system: OVCAR-8
M14 = system: M14
HCC 2998 = system: HCC 2998
KM12 = system: KM12
786-0 = system: 786-0
SN12C = system: SN12C
K562 = system: K562
SNB-75 = system: SNB-75
SF-268 = system: SF-268
COLO 205 = system: COLO 205
Hs-578T = system: Hs-578T
DU-145 = system: DU-145
MDA-MB-231 = system: MDA-MB-231

Row | SMILES | GI50 (SK-MEL-2) | GI50 (SK-MEL-28) | GI50 (SNB-19) | GI50 (TK-10) | GI50 (EKVX) | GI50 (OVCAR-8) | GI50 (M14) | GI50 (HCC 2998) | GI50 (KM12) | GI50 (786-0) | GI50 (SN12C) | GI50 (K562) | GI50 (SNB-75) | GI50 (SF-268) | GI50 (COLO 205) | GI50 (Hs-578T) | GI50 (DU-145) | GI50 (MDA-MB-231)
1 | COc1ccc(C(O)/C(=C/n2ccnc2)c2ccccc2)cc1OC (configuration not stated) | > 100 µM (inactive) | > 100 µM (inactive) | > 100 µM (inactive) | > 100 µM (inactive) | > 100 µM (inactive) | > 100 µM (inactive) | > 100 µM (inactive) | > 100 µM (inactive) | > 100 µM (inactive) | > 100 µM (inactive) | > 100 µM (inactive) | > 100 µM (inactive) | 49.4 µM (inactive) | > 100 µM (inactive) | > 100 µM (inactive) | – | – | –
2 | C=CCNC(=O)NCCCCC(NC(C)=O)C(=O)NCc1ccccc1 (configuration not stated) | > 100 µM (inactive) | > 100 µM (inactive) | > 100 µM (inactive) | > 100 µM (inactive) | > 100 µM (inactive) | > 100 µM (inactive) | > 100 µM (inactive) | > 100 µM (inactive) | > 100 µM (inactive) | > 100 µM (inactive) | > 100 µM (inactive) | > 100 µM (inactive) | > 100 µM (inactive) | > 100 µM (inactive) | > 100 µM (inactive) | – | – | –
3 | CCOC(=O)C1=C(C)N(NC(N)=O)C2(N)N(NC(N)=O)C(C)=C(C(=O)OCC)C12C#N (configuration not stated) | > 100 µM (inactive) | > 100 µM (inactive) | > 100 µM (inactive) | – | > 100 µM (inactive) | > 100 µM (inactive) | > 100 µM (inactive) | > 100 µM (inactive) | > 100 µM (inactive) | > 100 µM (inactive) | > 100 µM (inactive) | > 100 µM (inactive) | > 100 µM (inactive) | > 100 µM (inactive) | – | – | – | –
4 | COC(=O)N/N=C(\C(=O)Nc1cccc([N+](=O)[O-])c1)c1nc2ccc([N+](=O)[O-])cc2nc1O | – | > 100 µM (inactive) | > 100 µM (inactive) | > 100 µM (inactive) | > 100 µM (inactive) | 83.2 µM (inactive) | 45.3 µM (inactive) | 33 µM (inactive) | 29.4 µM (inactive) | 53.1 µM (inactive) | > 100 µM (inactive) | 11.4 µM (inactive) | 85.7 µM (inactive) | 0.38 µM (active) | 37.1 µM (inactive) | – | – | –
5 | COP(=O)(OC)C(NC(=O)C(F)(F)F)(c1ccccc1)C(F)(F)F (configuration not stated) | > 100 µM (inactive) | > 100 µM (inactive) | > 100 µM (inactive) | > 100 µM (inactive) | > 100 µM (inactive) | > 100 µM (inactive) | > 100 µM (inactive) | > 100 µM (inactive) | > 100 µM (inactive) | > 100 µM (inactive) | > 100 µM (inactive) | > 100 µM (inactive) | > 100 µM (inactive) | > 100 µM (inactive) | > 100 µM (inactive) | – | – | –
6 | O=C1CC[C@@H](S(=O)(=O)c2ccccc2)[C@@H](/C=C/c2ccccc2)O1 | – | > 100 µM (inactive) | > 100 µM (inactive) | > 100 µM (inactive) | > 100 µM (inactive) | > 100 µM (inactive) | > 100 µM (inactive) | > 100 µM (inactive) | > 100 µM (inactive) | > 100 µM (inactive) | > 100 µM (inactive) | > 100 µM (inactive) | > 100 µM (inactive) | – | > 100 µM (inactive) | – | – | –
7 | Cc1ccc2c(ccc(/C=C\c3cc(C)c4cccnc4c3O)[n+]2C)c1 | – | – | 6.08 µM (inactive) | – | 15.9 µM (inactive) | 0.912 µM (active) | 0.664 µM (active) | 1.81 µM (inactive) | 1.32 µM (inactive) | 2.32 µM (inactive) | 2 µM (inactive) | 0.385 µM (active) | – | 9.25 µM (inactive) | 9.89 µM (inactive) | – | – | –
8 | CNC(=O)O/N=C1\N(C)CN(c2ccccc2)C12CCN(CCCC(=O)c1ccc(F)cc1)CC2 | 60.8 µM (inactive) | > 100 µM (inactive) | > 100 µM (inactive) | 79.4 µM (inactive) | > 100 µM (inactive) | > 100 µM (inactive) | 16.9 µM (inactive) | 43 µM (inactive) | 27.7 µM (inactive) | 75.5 µM (inactive) | > 100 µM (inactive) | 38.5 µM (inactive) | 1.01 µM (active) | > 100 µM (inactive) | 18.2 µM (inactive) | > 100 µM (inactive) | > 100 µM (inactive) | 33.5 µM (inactive)
9 | O=C1CCC2(CC1CCSc1ccccc1)OCCO2 (configuration not stated) | > 100 µM (inactive) | > 100 µM (inactive) | > 100 µM (inactive) | > 100 µM (inactive) | > 100 µM (inactive) | > 100 µM (inactive) | > 100 µM (inactive) | > 100 µM (inactive) | > 100 µM (inactive) | > 100 µM (inactive) | – | > 100 µM (inactive) | > 100 µM (inactive) | > 100 µM (inactive) | > 100 µM (inactive) | > 100 µM (inactive) | > 100 µM (inactive) | > 100 µM (inactive)
10 | CCC/C(Cl)=N/OC(NC(=O)OCC)(C(F)(F)F)C(F)(F)F | > 100 µM (inactive) | 26.5 µM (inactive) | > 100 µM (inactive) | 19 µM (inactive) | 20.9 µM (inactive) | 33.9 µM (inactive) | 17.9 µM (inactive) | – | > 100 µM (inactive) | 17.4 µM (inactive) | 16.7 µM (inactive) | 25.6 µM (inactive) | 82.4 µM (inactive) | 19.9 µM (inactive) | 19.8 µM (inactive) | 34.5 µM (inactive) | > 100 µM (inactive) | 17.6 µM (inactive)
11 | Cc1ccc(C(=O)CC(O)(C(F)(F)F)C(F)(F)F)cc1[N+](=O)[O-] | 13.7 µM (inactive) | 8.15 µM (inactive) | 9.06 µM (inactive) | 17.6 µM (inactive) | 17.9 µM (inactive) | 10.2 µM (inactive) | 6.59 µM (inactive) | 6.9 µM (inactive) | 2.19 µM (inactive) | 12.1 µM (inactive) | 10 µM (inactive) | 2.79 µM (inactive) | 18.3 µM (inactive) | 9.42 µM (inactive) | 16.8 µM (inactive) | 9.46 µM (inactive) | 6.22 µM (inactive) | 7.55 µM (inactive)
12 | Cc1cccc2c(=O)c3cccc(CC(=O)O)c3oc12 | > 100 µM (inactive) | > 100 µM (inactive) | > 100 µM (inactive) | > 100 µM (inactive) | > 100 µM (inactive) | > 100 µM (inactive) | > 100 µM (inactive) | > 100 µM (inactive) | > 100 µM (inactive) | > 100 µM (inactive) | > 100 µM (inactive) | > 100 µM (inactive) | – | > 100 µM (inactive) | > 100 µM (inactive) | > 100 µM (inactive) | – | > 100 µM (inactive)
13 | COC1O[C@@H]2COC(C)(C)O[C@@H]2C(=O)N1Nc1ccc([N+](=O)[O-])cc1 (some centres not stated) | > 100 µM (inactive) | > 100 µM (inactive) | > 100 µM (inactive) | > 100 µM (inactive) | > 100 µM (inactive) | > 100 µM (inactive) | > 100 µM (inactive) | > 100 µM (inactive) | > 100 µM (inactive) | 34.2 µM (inactive) | > 100 µM (inactive) | > 100 µM (inactive) | > 100 µM (inactive) | > 100 µM (inactive) | > 100 µM (inactive) | – | – | –
14 | COC(=O)[C@@]12C3=NO[C@]1(C(=O)OC)C(O[Si](C)(C)C(C)(C)C)C1OC(C)(C)OC1[C@@H]2[C@@H](OCc1ccccc1)CC3 (some centres not stated) | > 100 µM (inactive) | > 100 µM (inactive) | > 100 µM (inactive) | > 100 µM (inactive) | > 100 µM (inactive) | > 100 µM (inactive) | 43.9 µM (inactive) | > 100 µM (inactive) | 7.73 µM (inactive) | > 100 µM (inactive) | > 100 µM (inactive) | 8.93 µM (inactive) | 9.66 µM (inactive) | – | 83.8 µM (inactive) | – | – | –
15 | Nc1ccc(Nc2cc(O)nc(O)n2)cc1 | – | > 100 µM (inactive) | > 100 µM (inactive) | > 100 µM (inactive) | > 100 µM (inactive) | > 100 µM (inactive) | – | > 100 µM (inactive) | > 100 µM (inactive) | > 100 µM (inactive) | > 100 µM (inactive) | > 100 µM (inactive) | – | > 100 µM (inactive) | – | > 100 µM (inactive) | > 100 µM (inactive) | > 100 µM (inactive)
16 | O=[N+]([O-])c1ccc(-c2nnc(C34CC5CC(CC(C5)C3)C4)o2)cc1 | > 100 µM (inactive) | > 100 µM (inactive) | > 100 µM (inactive) | > 100 µM (inactive) | > 100 µM (inactive) | – | > 100 µM (inactive) | > 100 µM (inactive) | > 100 µM (inactive) | > 100 µM (inactive) | > 100 µM (inactive) | > 100 µM (inactive) | > 100 µM (inactive) | > 100 µM (inactive) | > 100 µM (inactive) | > 100 µM (inactive) | > 100 µM (inactive) | > 100 µM (inactive)
17 | CC(C)(O)C(O)COc1c2c(cc3oc(=O)ccc13)OCO2 (configuration not stated) | > 100 µM (inactive) | > 100 µM (inactive) | > 100 µM (inactive) | > 100 µM (inactive) | > 100 µM (inactive) | > 100 µM (inactive) | > 100 µM (inactive) | > 100 µM (inactive) | > 100 µM (inactive) | > 100 µM (inactive) | > 100 µM (inactive) | > 100 µM (inactive) | 71.9 µM (inactive) | > 100 µM (inactive) | > 100 µM (inactive) | – | – | –
